This note sets out measurements from ChEMBL document CHEMBL5360622, “Leucettinibs, a Class of DYRK/CLK Kinase Inhibitors Inspired by the Marine Sponge Natural Product Leucettamine B” (J Med Chem, 2023).

For assay [1], the target named is Casein kinase I isoform epsilon (Homo sapiens, UniProt P49674).
Assay [2] addresses Cyclin-dependent kinase 5/CDK5 activator 1 (Homo sapiens, UniProt Q00535). The class given is cell-based, Sf9.
Assay [3] has as its target Dual specificity protein kinase CLK1 (Homo sapiens, UniProt P49759). The format is cell-based, Sf9.
Assay [4] deals with Dual specificity protein kinase CLK2 (Homo sapiens, UniProt P49760).
Assay [5] deals with Dual specificity protein kinase CLK3 (Homo sapiens, UniProt P49761). The class given is cell-based, Sf9.
Assay [6] addresses T1, Dual specificity tyrosine-phosphorylation-regulated kinase 2 (Homo sapiens, UniProt Q92630).
T1 sequence (Q92630 whole entry): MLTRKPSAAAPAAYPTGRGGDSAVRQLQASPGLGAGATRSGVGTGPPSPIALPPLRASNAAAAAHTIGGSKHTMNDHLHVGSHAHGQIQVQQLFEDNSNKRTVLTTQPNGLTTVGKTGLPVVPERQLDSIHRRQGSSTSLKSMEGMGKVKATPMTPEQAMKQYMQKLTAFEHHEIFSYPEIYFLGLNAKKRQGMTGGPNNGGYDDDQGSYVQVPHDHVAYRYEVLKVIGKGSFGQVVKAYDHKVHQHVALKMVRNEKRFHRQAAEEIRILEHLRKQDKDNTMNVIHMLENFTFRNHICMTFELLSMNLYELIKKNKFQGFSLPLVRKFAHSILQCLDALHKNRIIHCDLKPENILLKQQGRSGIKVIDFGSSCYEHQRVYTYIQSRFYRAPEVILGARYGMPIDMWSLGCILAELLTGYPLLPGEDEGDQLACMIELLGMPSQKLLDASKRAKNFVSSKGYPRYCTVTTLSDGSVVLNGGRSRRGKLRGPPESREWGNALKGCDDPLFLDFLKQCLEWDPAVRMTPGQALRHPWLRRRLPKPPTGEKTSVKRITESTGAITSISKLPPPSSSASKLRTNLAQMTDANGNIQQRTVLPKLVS

Assay [7] has as its target T2, Dual specificity tyrosine-phosphorylation-regulated kinase 3 (Homo sapiens, UniProt O43781).
T2 sequence (O43781 whole entry): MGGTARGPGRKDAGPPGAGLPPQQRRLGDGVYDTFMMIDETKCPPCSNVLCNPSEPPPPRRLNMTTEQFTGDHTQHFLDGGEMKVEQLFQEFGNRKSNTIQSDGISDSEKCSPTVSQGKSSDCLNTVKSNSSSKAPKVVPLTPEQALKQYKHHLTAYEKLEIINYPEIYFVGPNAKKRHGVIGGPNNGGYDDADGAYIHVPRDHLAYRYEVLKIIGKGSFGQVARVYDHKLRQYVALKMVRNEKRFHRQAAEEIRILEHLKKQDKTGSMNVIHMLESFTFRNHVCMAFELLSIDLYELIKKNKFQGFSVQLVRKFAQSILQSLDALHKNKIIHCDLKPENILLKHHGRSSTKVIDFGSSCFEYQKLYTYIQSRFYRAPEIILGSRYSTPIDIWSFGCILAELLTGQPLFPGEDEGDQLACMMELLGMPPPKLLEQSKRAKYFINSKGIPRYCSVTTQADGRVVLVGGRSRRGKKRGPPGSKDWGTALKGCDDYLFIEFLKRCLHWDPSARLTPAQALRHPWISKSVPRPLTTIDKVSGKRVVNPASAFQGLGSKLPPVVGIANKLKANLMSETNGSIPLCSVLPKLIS

Assay [8] deals with T3, Dual specificity tyrosine-phosphorylation-regulated kinase 4 (Homo sapiens, UniProt Q9NR20).
T3 sequence (Q9NR20 whole entry): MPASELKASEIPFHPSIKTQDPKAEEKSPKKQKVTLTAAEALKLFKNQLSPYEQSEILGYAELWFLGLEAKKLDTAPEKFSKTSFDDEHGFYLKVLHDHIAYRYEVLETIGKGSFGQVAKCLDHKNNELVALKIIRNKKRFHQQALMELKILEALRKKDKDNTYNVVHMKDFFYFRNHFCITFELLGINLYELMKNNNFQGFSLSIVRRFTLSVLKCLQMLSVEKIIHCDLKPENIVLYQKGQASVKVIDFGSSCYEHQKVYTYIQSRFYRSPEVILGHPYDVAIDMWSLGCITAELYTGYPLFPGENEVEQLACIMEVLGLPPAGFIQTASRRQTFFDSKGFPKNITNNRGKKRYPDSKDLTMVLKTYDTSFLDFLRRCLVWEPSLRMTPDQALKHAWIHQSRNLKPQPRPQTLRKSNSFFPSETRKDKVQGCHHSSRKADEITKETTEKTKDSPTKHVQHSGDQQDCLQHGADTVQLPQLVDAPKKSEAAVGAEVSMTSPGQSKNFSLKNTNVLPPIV

In assay [9] the target is Glycogen synthase kinase-3 beta (Homo sapiens, UniProt P49841). The format is cell-based, Sf9.
Assay [10] deals with Dual specificity protein kinase CLK4 (Homo sapiens, UniProt Q9HAZ1).
Dual specificity protein kinase CLK4, sequence (Q9HAZ1 whole entry): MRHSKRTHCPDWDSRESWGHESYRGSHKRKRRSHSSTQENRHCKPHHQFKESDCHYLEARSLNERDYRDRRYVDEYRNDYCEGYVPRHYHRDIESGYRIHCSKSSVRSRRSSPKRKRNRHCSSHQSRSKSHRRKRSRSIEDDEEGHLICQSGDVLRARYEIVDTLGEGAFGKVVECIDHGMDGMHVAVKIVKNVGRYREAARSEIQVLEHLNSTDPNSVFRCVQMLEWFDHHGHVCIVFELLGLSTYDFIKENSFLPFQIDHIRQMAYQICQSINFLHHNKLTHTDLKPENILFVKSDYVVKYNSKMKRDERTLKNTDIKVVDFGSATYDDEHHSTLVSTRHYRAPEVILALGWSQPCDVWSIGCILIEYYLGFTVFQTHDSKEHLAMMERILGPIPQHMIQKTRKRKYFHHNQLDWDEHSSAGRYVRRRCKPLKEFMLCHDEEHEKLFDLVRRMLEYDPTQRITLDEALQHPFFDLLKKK

Glycogen synthase kinase-3 beta, sequence (P49841 whole entry): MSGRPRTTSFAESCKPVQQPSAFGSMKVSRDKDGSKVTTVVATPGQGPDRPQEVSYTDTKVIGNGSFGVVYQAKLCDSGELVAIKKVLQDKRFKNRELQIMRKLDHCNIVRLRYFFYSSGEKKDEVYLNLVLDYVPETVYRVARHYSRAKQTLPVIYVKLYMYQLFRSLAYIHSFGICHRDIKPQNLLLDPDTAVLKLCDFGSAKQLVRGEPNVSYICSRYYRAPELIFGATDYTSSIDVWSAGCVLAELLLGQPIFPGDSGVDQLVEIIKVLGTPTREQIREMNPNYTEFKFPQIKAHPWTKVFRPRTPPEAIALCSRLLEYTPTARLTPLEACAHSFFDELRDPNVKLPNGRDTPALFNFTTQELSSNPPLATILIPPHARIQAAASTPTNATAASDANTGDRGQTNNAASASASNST
Casein kinase I isoform epsilon, sequence (P49674 whole entry, canonical isoform): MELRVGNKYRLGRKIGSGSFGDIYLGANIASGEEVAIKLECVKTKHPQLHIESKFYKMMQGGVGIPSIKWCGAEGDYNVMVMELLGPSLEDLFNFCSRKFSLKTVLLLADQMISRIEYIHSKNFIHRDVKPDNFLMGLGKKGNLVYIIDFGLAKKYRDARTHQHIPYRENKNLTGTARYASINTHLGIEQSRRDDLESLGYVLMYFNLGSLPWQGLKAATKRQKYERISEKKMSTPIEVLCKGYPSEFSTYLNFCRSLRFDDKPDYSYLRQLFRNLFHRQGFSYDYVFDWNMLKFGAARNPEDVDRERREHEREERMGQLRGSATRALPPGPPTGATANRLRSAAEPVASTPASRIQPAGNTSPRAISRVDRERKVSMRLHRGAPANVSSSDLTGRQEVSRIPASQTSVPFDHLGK
Dual specificity protein kinase CLK1, sequence (P49759 whole entry): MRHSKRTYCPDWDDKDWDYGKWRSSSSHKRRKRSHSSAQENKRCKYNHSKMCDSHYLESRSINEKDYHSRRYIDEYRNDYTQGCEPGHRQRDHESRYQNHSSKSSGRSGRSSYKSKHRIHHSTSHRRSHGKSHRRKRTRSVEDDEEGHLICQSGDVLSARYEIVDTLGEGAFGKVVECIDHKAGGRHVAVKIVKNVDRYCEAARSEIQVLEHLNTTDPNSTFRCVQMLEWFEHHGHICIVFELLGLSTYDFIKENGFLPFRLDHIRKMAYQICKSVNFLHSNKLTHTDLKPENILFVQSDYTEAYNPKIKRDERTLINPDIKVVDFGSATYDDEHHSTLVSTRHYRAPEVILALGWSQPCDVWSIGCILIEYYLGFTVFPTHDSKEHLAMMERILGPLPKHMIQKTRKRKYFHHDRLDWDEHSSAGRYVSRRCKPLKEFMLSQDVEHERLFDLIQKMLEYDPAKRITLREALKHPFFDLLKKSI
Dual specificity protein kinase CLK2, sequence (P49760 whole entry): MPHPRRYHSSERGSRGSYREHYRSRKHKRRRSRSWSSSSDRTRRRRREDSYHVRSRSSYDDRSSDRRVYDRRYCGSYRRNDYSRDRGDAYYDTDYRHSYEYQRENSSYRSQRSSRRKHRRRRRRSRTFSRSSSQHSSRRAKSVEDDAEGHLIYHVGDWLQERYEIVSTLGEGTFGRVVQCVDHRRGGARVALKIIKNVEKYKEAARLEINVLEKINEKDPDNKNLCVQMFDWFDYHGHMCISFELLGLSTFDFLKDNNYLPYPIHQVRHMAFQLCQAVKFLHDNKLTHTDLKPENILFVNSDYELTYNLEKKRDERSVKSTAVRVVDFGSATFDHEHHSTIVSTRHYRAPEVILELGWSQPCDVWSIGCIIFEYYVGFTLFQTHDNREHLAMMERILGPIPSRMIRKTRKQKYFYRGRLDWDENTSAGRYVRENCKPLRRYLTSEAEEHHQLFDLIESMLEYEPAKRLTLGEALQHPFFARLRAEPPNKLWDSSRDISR
Dual specificity protein kinase CLK3, sequence (P49761 whole entry): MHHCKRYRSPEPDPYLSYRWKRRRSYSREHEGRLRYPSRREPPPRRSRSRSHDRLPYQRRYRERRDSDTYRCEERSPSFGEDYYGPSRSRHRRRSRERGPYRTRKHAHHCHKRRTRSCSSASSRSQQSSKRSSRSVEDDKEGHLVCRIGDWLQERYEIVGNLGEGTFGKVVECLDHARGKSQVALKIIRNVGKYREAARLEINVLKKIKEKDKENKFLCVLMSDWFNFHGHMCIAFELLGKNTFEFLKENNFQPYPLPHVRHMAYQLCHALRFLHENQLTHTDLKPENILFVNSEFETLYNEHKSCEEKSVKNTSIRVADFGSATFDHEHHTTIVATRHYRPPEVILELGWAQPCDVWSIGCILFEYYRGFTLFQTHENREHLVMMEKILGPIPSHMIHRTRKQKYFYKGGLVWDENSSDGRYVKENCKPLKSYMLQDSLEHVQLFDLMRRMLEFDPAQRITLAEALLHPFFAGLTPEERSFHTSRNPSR
Cyclin-dependent kinase 5/CDK5 activator 1, sequence (Q00535 whole entry): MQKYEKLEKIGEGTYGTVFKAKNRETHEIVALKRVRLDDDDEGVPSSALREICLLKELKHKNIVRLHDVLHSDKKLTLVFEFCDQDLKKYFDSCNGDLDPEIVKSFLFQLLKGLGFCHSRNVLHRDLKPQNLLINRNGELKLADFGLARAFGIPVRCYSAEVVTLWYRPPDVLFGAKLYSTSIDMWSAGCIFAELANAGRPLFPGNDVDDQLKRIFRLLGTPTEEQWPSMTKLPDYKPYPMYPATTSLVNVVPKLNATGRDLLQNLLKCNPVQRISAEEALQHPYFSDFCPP
Cyclin-dependent kinase 5/CDK5 activator 1, sequence (Q15078 whole entry, further chain): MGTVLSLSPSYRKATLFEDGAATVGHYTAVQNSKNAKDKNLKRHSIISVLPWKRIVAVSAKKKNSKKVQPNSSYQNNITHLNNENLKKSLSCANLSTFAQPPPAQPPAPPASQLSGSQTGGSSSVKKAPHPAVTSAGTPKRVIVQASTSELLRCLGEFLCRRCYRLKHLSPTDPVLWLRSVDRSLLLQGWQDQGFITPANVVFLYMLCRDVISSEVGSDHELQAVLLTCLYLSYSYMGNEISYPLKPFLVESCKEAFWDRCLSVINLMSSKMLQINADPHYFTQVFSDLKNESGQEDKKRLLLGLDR

The IC50 is the point on the concentration scale where inhibition reaches its midpoint. A high value points to weaker potency. As to `CN1CC[C@@](C)(NC2=N/C(=C\c3ccc4ncsc4c3)C(=O)N2)C1=O` (stereo in doubt), the IC50 is greater than 10 µM in assay [1]; greater than 10 µM in assay [2]; 0.011 µM in assay [3]; 0.028 µM in assay [4]; 1.13 µM in assay [5]; 0.795 µM in [6]. Besides, the IC50 in [7] came out at 0.39 µM; in assay [8], 1.7 µM; in assay [9], 1.74 µM.
Consider `O=C1NC(Nc2cccc(C(F)(F)F)c2)=N/C1=C\c1ccc2ncsc2c1`, for which the IC50 in assay [1] was greater than 10 µM; in assay [2], greater than 10 µM; in assay [3] it was 0.193 µM; in [4], 0.696 µM; in [5], 7.03 µM; in [6], 2.5 µM. Besides, the IC50 in [7] was 5.73 µM; in assay [8] it was greater than 10 µM; in assay [9], greater than 10 µM.
For `O=C1NC(NC2CC3(CCC3)C2)=N/C1=C\c1ccc2ncsc2c1`, the IC50 in assay [1] was greater than 10 µM; in assay [2], greater than 10 µM; in [3], 0.017 µM; in assay [4], 0.183 µM; in assay [5], 0.212 µM; in assay [6], 1.08 µM. Besides, the concentration for half-maximal inhibition (IC50) in [7] was found to be 0.873 µM; in [8], 0.944 µM; in [9], 4.57 µM.
For the compound `C[C@@H]1CCCC[C@H]1NC1=N/C(=C\c2ccc3ncsc3c2)C(=O)N1` (racemic), the IC50 in assay [1] was greater than 10 µM; in [2], greater than 10 µM; in assay [3], 0.017 µM; in [4] it was 0.114 µM; in [5], 0.914 µM; in [6] it was 0.549 µM. The IC50 was 0.531 µM in assay [7], 0.538 µM in assay [8] and 8.36 µM in assay [9].
For the compound `CC(C)C[C@H](CO)NC1=N/C(=C\c2ccc3ncsc3c2)C(=O)N1`, the IC50 in assay [1] is greater than 10 µM; in assay [2], greater than 10 µM; in [3], 0.019 µM; in [5], 0.484 µM; in assay [6], 0.953 µM; in assay [7], 0.394 µM. Also, the IC50 in assay [8] stood at 0.764 µM; in assay [9] it was 2.52 µM.
With `CC(C)C[C@H](CF)NC1=N/C(=C\c2ccc3ncsc3c2)C(=O)N1`, the IC50 in assay [1] is greater than 10 µM; in assay [2], greater than 10 µM; in assay [3] it was 0.009 µM; in assay [4], 0.027 µM; in [5] it was 0.403 µM; in [6] it was 0.433 µM. Further, the IC50 in assay [7] stood at 0.657 µM; in [8], 0.927 µM; in assay [9], 1.56 µM.
As for `O=C1NC(NC[C@H](O)c2ccccc2)=N/C1=C\c1ccc2ncsc2c1`, the IC50 in assay [2] was greater than 10 µM; in assay [3], 0.012 µM; in [6], 0.417 µM; in assay [8], 4.32 µM; in assay [9] it was greater than 10 µM.
On to `O=C1NC(NC2CCOCC2)=N/C1=C\c1ccc2ncsc2c1`, for which the IC50 was greater than 10 µM in [1]; greater than 10 µM in [2]; 0.024 µM in [3]; 1.28 µM in assay [5]; 1.67 µM in assay [7]; 1.26 µM in assay [8]. In assay [9], this compound displayed an IC50 greater than 10 µM.
With `O=C1NC(NC[C@@H](O)c2ccccc2)=N/C1=C\c1ccc2ncsc2c1`, the IC50 in assay [2] was greater than 10 µM; in assay [3], 0.013 µM; in assay [6], 0.016 µM; in assay [8], 0.181 µM; in assay [9], 2.6 µM.
Turning to `CC(C)C[C@@H](CO)NC1=N/C(=C\c2ccc3ncsc3c2)C(=O)N1`, the IC50 was greater than 10 µM in assay [1]; greater than 10 µM in [2]; 0.049 µM in [3]; 0.546 µM in assay [5]; 4.98 µM in assay [6]; 0.745 µM in assay [7]. Moreover, the half-maximal inhibitory concentration (IC50) in assay [8] was determined as 6.49 µM; in assay [9], 9.37 µM.
As for `COC(=O)[C@@H](Cc1ccccc1)NC1=N/C(=C\c2ccc3ncsc3c2)C(=O)N1`, the IC50 in assay [1] was greater than 10 µM; in assay [2], greater than 10 µM; in assay [3] it was 0.122 µM; in assay [5], greater than 10 µM; in assay [6], 8.38 µM; in [8], 6.82 µM. The same compound came in with a half-inhibitory concentration (IC50) in [9] greater than 10 µM.
Consider `CC(C)(C)OC[C@H](NC1=N/C(=C\c2ccc3ncsc3c2)C(=O)N1)c1ccccc1`, for which the IC50 was greater than 10 µM in assay [1]; greater than 10 µM in [2]; 0.018 µM in assay [3]; 0.121 µM in assay [4]; 2.1 µM in [5]; 1.72 µM in [6]. This compound also registered an IC50 in assay [9] of 9.97 µM.
`COC(=O)[C@@H](NC1=N/C(=C\c2ccc3ncsc3c2)C(=O)N1)C(C)C`: the IC50 was greater than 10 µM in assay [1]; greater than 10 µM in assay [2]; 0.016 µM in assay [3]; 0.791 µM in [5]; 0.328 µM in [6]; 0.56 µM in [7]. Besides, in assay [9], the IC50 came to 8.24 µM.
`CCCCCCc1ccc(NC2=N/C(=C\c3ccc4ncsc4c3)C(=O)N2)cc1`: the IC50 in [1] is greater than 10 µM; in assay [2] it was greater than 10 µM; in [4], 14.2 µM; in assay [5], greater than 10 µM; in [10], 3.13 µM; in [6], greater than 10 µM. The IC50 in [7], in assay [8] and in [9] was greater than 10 µM each time.
As for `CC(NC1=N/C(=C\c2ccc3ncsc3c2)C(=O)N1)C12CC3CC(CC(C3)C1)C2` (racemic), the IC50 in [1] was greater than 10 µM; in assay [2], greater than 10 µM; in assay [4], 1.32 µM; in assay [5] it was 5.11 µM; in assay [10] it was 0.21 µM; in [6], greater than 10 µM. For the same compound, the IC50 in assay [7], in assay [8] and in assay [9] was greater than 10 µM throughout.
In the case of `CN1CCCC(NC2=N/C(=C\c3ccc4ncsc4c3)C(=O)N2)C1=O` (racemic), the IC50 in assay [1] was greater than 10 µM; in [2], greater than 10 µM; in [4] it was 0.416 µM; in [5], 2.81 µM; in assay [10], 0.027 µM; in assay [6], 3.3 µM. Further, the IC50 in assay [7] is 2.98 µM; in [8], 6.08 µM; in [9], greater than 10 µM.
With `COC(=O)[C@H](Cc1ccccc1)NC1=N/C(=C\c2ccc3ncsc3c2)C(=O)N1`, the IC50 in [1] is greater than 10 µM; in assay [2] it was greater than 10 µM; in assay [3], 0.028 µM; in assay [5], 1.85 µM; in [6], 0.216 µM; in assay [8], 0.445 µM. This compound also returned an IC50 in [9] greater than 10 µM.
For the compound `Cn1ncc2cccc(NC3=N/C(=C\c4ccc5ncsc5c4)C(=O)N3)c21`, the IC50 in assay [1] was greater than 10 µM; in assay [2] it was greater than 10 µM; in [4], 0.698 µM; in [5], 1.55 µM; in [10], 0.073 µM; in assay [6], 5.63 µM. Also, the IC50 in assay [7] was determined as 4.05 µM; in assay [8], 4.82 µM; in assay [9], 3.68 µM.
